{
  "source": "patent US20210349099A1",
  "about": "“CANCER BIOMARKERS AND METHODS OF USE THEREOF” (X4 Pharmaceuticals, Inc., priority 2017, published 2021)",
  "key": {"[1]": {"test_system": "metastatic melanoma human tumor sample", "experiment": "Single-marker IHC of melanoma patient tumor samples (HALO)", "assay_type": "in vivo", "procedure": "Single-marker IHC (CD8 and granzyme B) and multiplex IHC staining were analyzed using HALO™ spatial analysis tools, and the entire tumor area of each specimen was scored. (See Tunstall, “Quantifying Immune Cell Distribution in the Tumor Microenvironment Using HALO™ Spatial Analysis Tools,” Application Note, July […], (Indica Labs), accessed Nov. 1, 2017, on https://thepathologist.com/fileadmin/issues/App_Notes/0016-010-halo-app-note.pdf). See also Sherry et al., “Utilizing multiplex chromogenic IHC and digital image analysis to evaluate immune cell content and spatial distribution within NSCLC tumor tissue” Cancer Research (2017) 77(13) Supp: Abstract 2937. CD8 was measured using a mouse monoclonal antibody (DAKO catalog #M7103, lot #20029542). A Leica Bond RX Autostainer was used following standard protocols. For granzyme B, a mouse monoclonal antibody was used (DAKO #M7235). A Leica Bond RX Autostainer was used following standard protocols.\nSingle-marker IHC was also used to measure CD3, FoxP3, and Ki67. For CD3, a rabbit polyclonal antibody was used (DAKO catalog #A0452, lot #20020069). A Leica Bond RX Autostainer was used following standard protocols. For FoxP3, a mouse monoclonal antibody was used (Abcam catalog #ab20034, lot #GR251424-1). A Leica Bond RX Autostainer was used following standard protocols. […]"}, "melanoma lesions": {"test_system": "melanoma lesions", "experiment": "CD8/Ki67/melanoma staining with nearest neighbor spatial analysis of biopsies", "assay_type": "in vivo, human", "procedure": "Tumor samples obtained from melanoma patients were formalin-fixed and paraffin-embedded (FFPE) according to known procedures. FFPE tissue sections were baked for 1 hour at 60° C. The slides were dewaxed and stained on a Leica BOND Rx stainer (Leica, Buffalo Grove, Ill.) using Leica Bond reagents for dewaxing (Dewax Solution), antigen retrieval and antibody stripping (Epitope Retrieval Solution 2), and rinsing after each step (Bond Wash Solution). A high stringency wash was performed after the secondary and tertiary applications using high-salt TBST solution (0.05 M Tris, 0.3M NaCl, and 0.1% Tween-20, pH 7.2-7.6).\nMultiplex IHC staining was analyzed using HALO™ spatial analysis tools, and the entire tumor area of each specimen was scored. (See Tunstall, “Quantifying Immune Cell Distribution in the Tumor Microenvironment Using HALO™ Spatial Analysis Tools,” Application Note, July […], (Indica Labs), accessed Nov. 1, 2017, on https://thepathologist.com/fileadmin/issues/App_Notes/0016-010-halo-app-note.pdf). See also Sherry et al., Cancer Research 77(13) Supp: Abstract 2937 (2017).\nSlides were sequentially stained with antibody panels after rounds of heat-induced epitope retrieval and detected by antibody-binding HRP-containing polymers in conjunction with fluorescent tyramide substrate (Opal, Perkin-Elmer). DAPI was used as a nuclear counterstain. Fluorochromes with spectral overlap were imaged using spectral deconvolution and autofluorescence-subtraction (Vectra 3.0, Perkin-Elmer). Whole-slide scans were imaged using the Aperio-FL System (Leica Biosystems) and transferred into Halo for quantitative digital image analysis. After the cells were visualized based on nuclear recognition (DAPI stain), the software measured fluorescence intensity of the estimated cytoplasmic areas of each cell. A mean intensity threshold above background was used to determine positivity for each fluorochrome within the cytoplasm, thereby, defining cells as either positive or negative for each marker. The positive cell data was then used to define colocalized populations and to perform nearest neighbor spatial analysis.\nStaining for CD4, CD8, PD-1, PD-L1, CD163/CD68 (macrophage), FoxP3, Ki-67, and melanoma cells was accomplished using the antibodies listed in TABLE 3 and 4. OPAL Polymer HRP Mouse plus Rabbit (Perkin-Elmer, Hopkington, Mass.) was used for all secondary applications. […]\nRepresentative distance measurements between CD8^+ T cells and their nearest melanoma cell neighbors are shown in FIG. 13 (Day 1), FIG. 14 (Week 4), and FIG. 15 (End of treatment). Whole slide scans were performed using a fluorescence slide scanner (Aperio-FL, 20× objective). […]"}, "melanoma biopsy samples": {"test_system": "melanoma biopsy samples", "experiment": "VISTA panel staining of melanoma biopsies (CD163, CD206, VISTA, COX-2, CD3, B7H3)", "assay_type": "in vivo, human", "source_text": "Biopsy samples were obtained at baseline (top row) and at the end of […]-001 monotherapy (bottom row). […] The right column contains higher magnification views of the boxed regions in the center panel."}, "[2]": {"conditions": "Phase 1 and 2a trials; cited from earlier work"}, "[3]": {"conditions": "end of X4P-001 monotherapy vs baseline"}},
  "data": [
    {"molecule": "NCCCCN(Cc1nc2ccccc2[nH]1)[C@H]1CCCc2cccnc21", "note": "[X4P-001]", "values": [
      {"measurement": "CD8 expression", "setting": "[1]; patient #5, post-dosing vs pre-dosing", "value": "visibly increased"},
      {"measurement": "CD8+ T cells density in tumor microenvironment", "setting": "[1]; patient #5, post-dosing, pre-dosing 1045", "value": 1370, "unit": "per square millimeter"},
      {"measurement": "number of unique neighbors", "setting": "melanoma lesions; after 4 weeks of monotherapy, Day 1 3,826", "value": "5,239"},
      {"measurement": "average distance between CD8+ T cells and the nearest tumor cell", "setting": "melanoma lesions; after 4 weeks of monotherapy, Day 1 baseline 95", "value": 43, "unit": "microns"},
      {"measurement": "CD8+ T cell density", "setting": "melanoma lesions; patient 5, entire tissue sample, after monotherapy", "value": "increased"},
      {"measurement": "proliferating CD8+ T cell (Ki67+) density", "setting": "melanoma lesions; patient 5, entire tissue sample, after monotherapy, stronger impact", "value": "increased"},
      {"measurement": "COX-2/mm^2", "setting": "melanoma biopsy samples; Week 4, ROI Non-Tumor, Day 1 2.07", "value": "1.22 /mm^2"},
      {"measurement": "CD206/mm^2", "setting": "melanoma biopsy samples; Week 4, ROI Non-Tumor, Day 1 252.20", "value": "199.30 /mm^2"},
      {"measurement": "CD3/mm^2", "setting": "melanoma biopsy samples; Week 4, ROI Non-Tumor, Day 1 400.31", "value": "494.97 /mm^2"},
      {"measurement": "VISTA/mm^2", "setting": "melanoma biopsy samples; Week 4, ROI Non-Tumor, Day 1 410.11", "value": "144.72 /mm^2"},
      {"measurement": "CD163/mm^2", "setting": "melanoma biopsy samples; Week 4, ROI Non-Tumor, Day 1 514.86", "value": "467.25 /mm^2"},
      {"measurement": "B7H3/mm^2", "setting": "melanoma biopsy samples; Week 4, ROI Non-Tumor, Day 1 615.63", "value": "980.49 /mm^2"},
      {"measurement": "Cells/mm^2", "setting": "melanoma biopsy samples; Week 4, ROI Non-Tumor, Day 1 2057.63", "value": "2217.73 /mm^2"},
      {"measurement": "COX-2/mm^2", "setting": "melanoma biopsy samples; Week 4, ROI Tumor, Day 1 3.40", "value": "2.98 /mm^2"},
      {"measurement": "CD3/mm^2", "setting": "melanoma biopsy samples; Week 4, ROI Tumor, Day 1 239.91", "value": "1050.68 /mm^2"},
      {"measurement": "CD206/mm^2", "setting": "melanoma biopsy samples; Week 4, ROI Tumor, Day 1 264.79", "value": "161.25 /mm^2"},
      {"measurement": "CD163/mm^2", "setting": "melanoma biopsy samples; Week 4, ROI Tumor, Day 1 426.51", "value": "661.21 /mm^2"},
      {"measurement": "VISTA/mm^2", "setting": "melanoma biopsy samples; Week 4, ROI Tumor, Day 1 2640.08", "value": "852.86 /mm^2"},
      {"measurement": "B7H3/mm^2", "setting": "melanoma biopsy samples; Week 4, ROI Tumor, Day 1 4826.36", "value": "3952.27 /mm^2"},
      {"measurement": "Cells/mm^2", "setting": "melanoma biopsy samples; Week 4, ROI Tumor, Day 1 5758.23", "value": "5297.64 /mm^2"},
      {"measurement": "COX-2/mm^2", "setting": "melanoma biopsy samples; Week 4, ROI Whole Tissue, Day 1 2.87", "value": "1.97 /mm^2"},
      {"measurement": "CD206/mm^2", "setting": "melanoma biopsy samples; Week 4, ROI Whole Tissue, Day 1 259.38", "value": "182.26 /mm^2"},
      {"measurement": "CD3/mm^2", "setting": "melanoma biopsy samples; Week 4, ROI Whole Tissue, Day 1 308.53", "value": "738.82 /mm^2"},
      {"measurement": "CD163/mm^2", "setting": "melanoma biopsy samples; Week 4, ROI Whole Tissue, Day 1 464.86", "value": "552.27 /mm^2"},
      {"measurement": "VISTA/mm^2", "setting": "melanoma biopsy samples; Week 4, ROI Whole Tissue, Day 1 1673.17", "value": "457.53 /mm^2"},
      {"measurement": "B7H3/mm^2", "setting": "melanoma biopsy samples; Week 4, ROI Whole Tissue, Day 1 2998.14", "value": "2288.84 /mm^2"},
      {"measurement": "Cells/mm^2", "setting": "melanoma biopsy samples; Week 4, ROI Whole Tissue, Day 1 4149.31", "value": "3572.93 /mm^2"},
      {"measurement": "expression of VISTA", "setting": "melanoma biopsy samples; [3]", "value": "decreased expression"},
      {"measurement": "numbers of CD3+ cells within tumor borders", "setting": "melanoma biopsy samples; [3]", "value": "increased numbers"},
      {"measurement": "pharmacodynamic activity: circulating white blood cells (WBCs)", "setting": "[2]", "value": "dose- and concentration-related changes"},
      {"measurement": "volume of distribution (VL)", "setting": "[2]", "value": "high"}
    ]}
  ]
}
